# Laboratory results published in patent US9492468B2, “Methods and compositions for treatment of acute heart failure” (PERICOR THERAPEUTICS, INC., priority 2008, dated 2016).
# Counter-ions that a name gives are not always drawn.
# Tested on: dogs with advanced heart failure
# Test: Single-dose 6 hours infusion study, hemodynamic, ventriculographic, echocardiographic, MVO2 and P-V loop measures
# Assay type: in vivo, dog
# Experimental: Studies were performed in purpose-bred, healthy and conditioned mongrel dogs weighing between 20 and 30 kg. The study was approved by Henry Ford Health System Institutional Animal Care and Use Committee and conformed to the National Institute of Health “Guide and Care for Use of Laboratory Animals” and the “Position of the American Heart Association on Research Animal Use” (Position of the American Heart Association on Research Animal Use. Circulation 1985; 71; 49A-50A).
# Chronic LV dysfunction and failure was produced by multiple sequential intracoronary embolizations with polystyrene Latex; coronary microembolizations were performed during cardiac catheterization under general anesthesia and sterile conditions (Sabbah H N, et al. Am J Physiol (1991) 260:H1379-84; Sabbah H N, et al. Circulation (1994) 89:2852-9; Sabbah H N, et al. Am J Cardiol 99:41 A-46A, (2007)). Anesthesia was induced using a combination of intravenous injections of oxymorphone hydrochloride (0.22 mg/kg) and diazepam (0.2-0.6 mg/kg). Plane of anesthesia was maintained throughout the study using 1% to 2% isoflurane. Left and right heart catheterizations were performed via a femoral arteriotomy and venotomy. Coronary microembolizations were discontinued when LV ejection fraction, determined angiographically, was about 25%. A period of 2 weeks was allowed after the last microembolization to ensure that infarctions produced by the last microembolizations have completely healed and heart failure was established before the study is undertaken.
# Six heart failure dogs described in Example 1 were used. Studies using active drug and placebo were performed in each dog in random order a minimum of one week apart. After baseline hemodynamic, angiographic and echocardiographic measurements, GP-531 tartrate or placebo was administered as a continuous constant intravenous infusion for 6 hours. The dose of GP-531 tartrate was 10 μg/kg/min. Complete hemodynamic, angiographic and echocardiographic measurements were made during baseline, and at 1, 2, 3, 4, 5 and 6 hours after initiating drug infusion. In addition, myocardial oxygen consumption (MVO2) was measured at baseline and 4 and 6 hours after initiating drug or saline infusion. LV pressure-volume relationships (P-V Loops) were also measured at baseline and at 6 hours after initiating drug or saline infusion to assess load independent contractility and relaxation. Venous blood samples were obtained at baseline and hourly thereafter. Blood samples (at least […]) were centrifuged at 3000 rpm for 10 minutes and plasma withdrawn and placed in cryostorage tubes and stored upright at −20° C. until needed. Venous blood samples were used to evaluate plasma levels of troponin-I and plasma levels of n-terminal pro-brain natriuretic peptide (NT-proBNP).
# Study Primary End-Points were: (1) change in LV ejection fraction determined from ventriculography; (2) change in LV end-systolic and end-diastolic volume determined from ventriculography; (3) change in MVO2; and (4) change in the slope of the LV end-systolic and end-diastolic P-V relationship.
# All hemodynamic measurements were made during left and right heart catheterizations in anesthetized dogs at each specified study time point. Heart rate (HR), mean aortic pressure (mAoP), LV end-diastolic pressure (LVEDP), stroke volume (SV), cardiac output (CO) and systemic vascular resistance (SVR) were measured at each study time point. Left ventriculograms were performed during cardiac catheterization after completion of the hemodynamic measurements. Left ventriculograms were obtained with the dog placed on its right side and digitally recorded during the injection of 20 ml of contrast material (RENO-M-60 Squibb, Princeton, N.J.). Correction for image magnification was made using a radiopaque grid placed at the level of the LV. […]
# [1] = HF dogs n=6, iv 10 μg/kg/min constant infusion, 1 h
# [2] = HF dogs n=6, iv 10 μg/kg/min constant infusion, 2 h
# [3] = HF dogs n=6, iv 10 μg/kg/min constant infusion, 3 h
# [4] = HF dogs n=6, iv 10 μg/kg/min constant infusion, 4 h
# [5] = HF dogs n=6, iv 10 μg/kg/min constant infusion, 5 h
# [6] = HF dogs n=6, iv 10 μg/kg/min constant infusion, 6 h
# [7] = HF dogs n=6, iv 10 μg/kg/min for 6 h
# [8] = HF dogs n=6, iv 10 μg/kg/min for 6 h, time-dependent
# [9] = HF dogs n=6, iv 10 μg/kg/min for 6 h, vs baseline
structure (smiles),measurement,setting,value
NC(=O)c1ncn(C2OC(CNCc3ccccc3)C(O)C2O)c1N (centres unmarked) [GP-531 tartrate],Cardiac output (CO),[1],1.42 ± 0.08 L/min
same,Deceleration time of early mitral inflow velocity (DCT),[1],100 ± 5 ms
same,Ei/Ai (ratio of mitral inflow time-velocity integrals),[1],1.78 ± 0.23
same,Heart rate (HR),[1],78 ± 1 beats/min
same,LV end-diastolic circumferential wall stress (EDWS),[1],53 ± 7 gm/cm^2
same,LV end-diastolic pressure (LVEDP),[1],12 ± 1.1 mmHg
same,LV end-diastolic volume (EDV),[1],64 ± 2 mL
same,LV end-systolic volume (ESV),[1],46 ± 2 mL
same,LV fractional area of shortening (FAS),[1],26 ± 0.8%
same,Mean aortic pressure (mAoP),[1],77 ± 3 mmHg
same,PE/PA (ratio of peak mitral flow velocities),[1],1.7 ± 0.10
same,Stroke volume (SV),[1],18 ± 1.0 mL
same,Systemic vascular resistance (SVR),[1],4368 ± 248 dynes-sec-cm^−5
same,Cardiac output (CO),[2],1.47 ± 0.11 L/min
same,Deceleration time of early mitral inflow velocity (DCT),[2],109 ± 4 ms
same,Ei/Ai (ratio of mitral inflow time-velocity integrals),[2],2.03 ± 0.23
same,Heart rate (HR),[2],78 ± 2 beats/min
same,LV end-diastolic circumferential wall stress (EDWS),[2],47 ± 5 gm/cm^2
same,LV end-diastolic pressure (LVEDP),[2],12 ± 0.9 mmHg
same,LV end-diastolic volume (EDV),[2],63 ± 2 mL
same,LV end-systolic volume (ESV),[2],44 ± 2 mL
same,LV fractional area of shortening (FAS),[2],27 ± 1.3 %
same,Mean aortic pressure (mAoP),[2],77 ± 3 mmHg
same,PE/PA (ratio of peak mitral flow velocities),[2],1.8 ± 0.10
same,Stroke volume (SV),[2],19 ± 1.2 mL
same,Systemic vascular resistance (SVR),[2],4250 ± 327 dynes-sec-cm^−5
same,Cardiac output (CO),[3],1.53 ± 0.08 L/min
same,Deceleration time of early mitral inflow velocity (DCT),[3],113 ± 6 ms
same,Ei/Ai (ratio of mitral inflow time-velocity integrals),[3],2.40 ± 0.29
same,Heart rate (HR),[3],79 ± 3 beats/min
same,LV end-diastolic circumferential wall stress (EDWS),[3],47 ± 6 gm/cm^2
same,LV end-diastolic pressure (LVEDP),[3],12 ± 1.1 mmHg
same,LV end-diastolic volume (EDV),[3],63 ± 2 mL
same,LV end-systolic volume (ESV),[3],44 ± 2 mL
same,LV fractional area of shortening (FAS),[3],29 ± 0.9 %
same,Mean aortic pressure (mAoP),[3],79 ± 3 mmHg
same,PE/PA (ratio of peak mitral flow velocities),[3],1.9 ± 0.07
same,Stroke volume (SV),[3],19 ± 0.8 mL
same,Systemic vascular resistance (SVR),[3],4157 ± 212 dynes-sec-cm^−5
same,Cardiac output (CO),[4],1.63 ± 0.05 L/min
same,Deceleration time of early mitral inflow velocity (DCT),[4],113 ± 5 ms
same,Ei/Ai (ratio of mitral inflow time-velocity integrals),[4],2.51 ± 0.21
same,Heart rate (HR),[4],80 ± 3 beats/min
same,LV end-diastolic circumferential wall stress (EDWS),[4],44 ± 7 gm/cm^2
same,LV end-diastolic pressure (LVEDP),[4],11 ± 1.2 mmHg
same,LV end-diastolic volume (EDV),[4],63 ± 2 mL
same,LV end-systolic volume (ESV),[4],42 ± 2 mL
same,LV fractional area of shortening (FAS),[4],31 ± 1.5 %
same,Mean aortic pressure (mAoP),[4],79 ± 3 mmHg
same,Myocardial oxygen consumption (MVO2),[4],114 ± 14 μmols/min
same,PE/PA (ratio of peak mitral flow velocities),[4],2.1 ± 0.09
same,Stroke volume (SV),[4],21 ± 0.9 mL
same,Systemic vascular resistance (SVR),[4],3895 ± 168 dynes-sec-cm^−5
same,Cardiac output (CO),[5],1.64 ± 0.07 L/min
same,Deceleration time of early mitral inflow velocity (DCT),[5],118 ± 6 ms
same,Ei/Ai (ratio of mitral inflow time-velocity integrals),[5],2.68 ± 0.23
same,Heart rate (HR),[5],79 ± 4 beats/min
same,LV end-diastolic circumferential wall stress (EDWS),[5],43 ± 7 gm/cm^2
same,LV end-diastolic pressure (LVEDP),[5],11 ± 1.2 mmHg
same,LV end-diastolic volume (EDV),[5],62 ± 2 mL
same,LV end-systolic volume (ESV),[5],41 ± 2 mL
same,LV fractional area of shortening (FAS),[5],31 ± 1.4 %
same,Mean aortic pressure (mAoP),[5],77 ± 2 mmHg
same,PE/PA (ratio of peak mitral flow velocities),[5],2.2 ± 0.05
same,Stroke volume (SV),[5],21 ± 1.1 mL
same,Systemic vascular resistance (SVR),[5],3823 ± 221 dynes-sec-cm^−5
same,Cardiac output (CO),[6],1.69 ± 0.04 L/min
same,Deceleration time of early mitral inflow velocity (DCT),[6],118 ± 4 ms
same,Ei/Ai (ratio of mitral inflow time-velocity integrals),[6],2.77 ± 0.23
same,Heart rate (HR),[6],81 ± 4 beats/min
same,LV end-diastolic circumferential wall stress (EDWS),[6],41 ± 7 gm/cm^2
same,LV end-diastolic pressure (LVEDP),[6],10 ± 1.2 mmHg
same,LV end-diastolic volume (EDV),[6],62 ± 2 mL
same,LV end-systolic volume (ESV),[6],41 ± 2 mL
same,LV fractional area of shortening (FAS),[6],32 ± 1.1 %
same,Mean aortic pressure (mAoP),[6],76 ± 3 mmHg
same,Myocardial oxygen consumption (MVO2),[6],115 ± 12 μmols/min
same,PE/PA (ratio of peak mitral flow velocities),[6],2.2 ± 0.06
same,Slope of end-diastolic pressure-volume relation (EDPVR),[6],0.296 ± 0.018 mmHg/ml
same,Slope of end-systolic pressure volume relation (ESPVR),[6],2.43 ± 0.35 mmHg/ml
same,Stroke volume (SV),[6],21 ± 0.8 mL
same,Systemic vascular resistance (SVR),[6],3571 ± 113 dynes-sec-cm^−5
same,Ventricular or atrial arrhythmias,[7],did not evoke any ventricular or atrial arrhythmias
same,Effect on DCT,[8],increased
same,Effect on EDWS,[8],decreased significantly
same,Effect on Ei/Ai,[8],increased significantly
same,Effect on PE/PA,[8],increased significantly
same,Effect on HR,[9],no effect
same,Effect on mAoP,[9],no effect
same,Effect on EF (LVEF),"HF dogs n=6, iv 10 μg/kg/min for 6 h, vs baseline, listed as GP-531 tartrate salt",increase
same,Effect on slope of the EDPVR,"HF dogs n=6, iv 10 μg/kg/min, 6 hours, not statistically significant",tended to decrease
same,LV systolic and diastolic function,"HF dogs, iv 10 μg/kg/min for 6 hours",can improve both LV systolic and diastolic function
"NC(=O)c1ncn(C2OC(CNCc3ccccc3)C(O)C2O)c1N [GP-531, 5-amino-1-β-D-(5-benzylamino-5-deoxy-1-β-D-ribofuranosyl)imidazole-4 carboxamide]","Time after initiating drug infusion at which improvements (EDV, ESV, EF, FAS) occurred","HF dogs n=6, iv 10 μg/kg/min",1 to 3 h
same,Acute decompensation,[7],None of the dogs treated with GP-531 developed acute decompensation
same,Changes in MVO2,[7],absence of any changes
same,Death,[7],none died
same,Effect on peak +dP/dt,[7],no significant effects
same,Effect on peak −dP/dt,[7],no significant effects
same,Effect on LVEDP,"HF dogs n=6, iv 10 μg/kg/min for 6 h, time-dependent, significance at 5 hours",significantly decreased
same,Effect on CO,[9],significant increase
same,Effect on EDV,[9],modest but statistically significant effect on reducing
same,Effect on EF (LVEF),[9],increased
same,Effect on ESV,[9],significantly decreased
same,Effect on FAS,[9],increased
same,Effect on SV,[9],significant increase
same,Effect on SVR,[9],decrease
same,Effect on slope of the ESPVR,"HF dogs n=6, iv 10 μg/kg/min, 6 h vs baseline",significantly increased
